According to US20260139254A1, “INTERFERING RNA FOR INHIBITING TOP1 GENE EXPRESSION AND USE THEREOF” (JENKEM TECHNOLOGY CO., LTD. (BEIJING), priority 2022, published 2026):

Legend:
Type in all cases: cell-based, human
TOP1 mRNA [1] = assay: Inhibitory effect of siTOP1 on TOP1 mRNA in A375 cells (Lipofectamine RNAiMAX transfection, Q-PCR); settings: A375, siRNA 50 nM, 48 h after transfection; for Relative expression level of gene, mean value: Blank = 100.00, GAPDH reference
Procedure: • 1) On the day before transfection, A375 melanoma cells were seeded into a 24-well plate at 6×10^4 to 8×10^4 cells/well, the culture medium being 500 μL of DMEM containing 10% FBS and 1% Penicillin-Streptomycin, and the plate was placed in an incubator with 5% CO2 at 37° C. for 24 h to allow the cells to adhere to the wall. Three replicate wells were made for each group. • 2) On the day of transfection, the culture medium was changed to 450 μL of DMEM culture medium without antibiotics (containing 10% FBS). • 3) The siRNAs were diluted with 25 μL of Opti-MEM culture medium; the siNC (the siNC (reference: O Sordet et al., 2008) having the target sequence of 5′-TTCTCCGAACGTGTCACGT-3′ (SEQ ID NO: 46)) at the same concentration was the negative control group; Lipofectamine™ RNAiMAX (Lipo) transfection reagent was diluted with another 25 μL of Opti-MEM culture medium and left to stand at room temperature for 5 min; and the two dilutions were uniformly mixed and left to stand at room temperature for 5 min. • 4) 50 μL of the mixed solution described above was added to each well to obtain a final transfection volume of 500 μL. and the working concentration of the siRNA was 50 nM. • 5) After the transfection, the cells were cultured for 48 h and then collected.
• 1) RNA was extracted using an Eastep™ Super total RNA extraction kit; 300 μL of RNA lysis solution and 300 μL of RNA diluent were added; and the mixture was uniformly mixed and then transferred to a 1.5 mL centrifuge tube. • 2) The mixture was centrifuged at 14000 g for 5 min, and the supernatant was carefully pipetted into a new 1.5 mL centrifuge tube. • 3) A 0.5-fold volume of absolute ethanol was added, and the mixture was uniformly mixed by allowing the tube to be repeatedly upside down 15-20 times. Subsequently, the mixture was transferred to a centrifuge column and centrifuged at 12000 g for 1 min. The filtrate was discarded. • 4) 600 μL of RNA wash buffer was added, and the mixture was centrifuged at 12000 g for 1 min. The filtrate was discarded. • 5) 50 μL of DNase I incubation buffer was added, followed by DNA digestion at room temperature for 15 min. • 6) 600 μL of RNA wash buffer was added, the mixture was centrifuged at 12000 g for 1 min, and the filtrate was discarded. This procedure was repeated once. • 7) The mixture was centrifuged at 14000 g for 2 min to remove the residual RNA wash buffer, and then the centrifuge column was placed in a collection tube. • 8) An appropriate amount of RNase-free H2O was added, and the mixture was left to stand at room temperature for 12 min and centrifuged at 14000 g for 1 min. The collected RNA was preserved at −70° C. for later use.
• 1) The mass and concentration of the RNA were detected using NanoDrop™, and an RNA template was prepared as follows: RNase-free H2O was added to 1 μg of RNA to a volume of 10 μL; the mixture was placed at 70° C. for 5 min and then placed in an ice bath for 5 min for later use. • 2) A reaction system was established according to Table 2:
• 3) The reaction system described above was uniformly mixed and centrifuged to collect the liquid at the bottom of a tube, and the mixture was subjected to the procedures of 25° C. for 5 min, 42° C. for 60 min, and 72° C. for 15 min, thereby giving the cDNA product. • 4) A Q-PCR system was prepared according to Table 3, and the level of TOP1 gene was detected:
GAPDH was used as an endogenous reference, and the sequences of the primers used for detection are as follows: […]

A375 melanoma cells = assay: Inhibition of A375 cell proliferation by siTOP1 (CCK-8); settings: A375, siRNA 50 nM, 72 h
Procedure: • 1) On the day before transfection, A375 melanoma cells were seeded into a 96-well plate at 2500-3000 cells/well, the culture medium being a total volume of 200 μL of DMEM culture medium containing 7.5% FBS and 1% Penicillin-Streptomycin, and the plate was placed in an incubator with 5% CO2 at 37° C. for 24 h to allow the cells to adhere to the wall. 5 replicate wells were made for each group. • 2) On the day of transfection, the culture medium was changed to 90 μL of reduced serum culture medium without antibiotics and containing 7.5% FBS. • 3) The siRNAs were diluted with an appropriate amount of Opti-MEM culture medium; Lipofectamine™ RNAiMAX (Lipo) transfection reagent was diluted with another appropriate amount of Opti-MEM culture medium and left to stand at room temperature for 5 min; and the two dilutions were uniformly mixed and left to stand at room temperature for 5 min. • 4) 10 μL of the mixed solution described above was added to each well to obtain a final transfection volume of 100 μL, and the working concentration of the siRNA was 50 nM. • 5) The cells were cultured in the incubator with 5% CO2 at 37° C. for 72 h.
After 72 h of transfection, 10 μL of CCK-8 solution was added to each well, and the cells were cultured in the incubator with 5% CO2 at 37° C. for another 4 h. The absorbance value at 450 nm was measured using a microplate reader. Cell viability was calculated according to the following formula: […]

TOP1 mRNA [2] = assay: Inhibitory effects of modified sequences of siTOP1-1604 on TOP1 mRNA in PC-3 cells; settings: PC-3, siRNA 50 nM, 48 h after transfection, Blank = 100.00
Procedure: PC-3 human prostate cancer cells were transfected with the modified siTOP1 according to the method in Example 2 at a siRNA working concentration of 50 nM. TOP1 mRNA levels were detected 48 h after the transfection. The control groups were Blank (Opti-MEM at the equal volume), Lipofectamine™ RNAiMAX (Lipo) transfection reagent, and the positive control unmodified siTOP-1604.

siTOP1-267: siRNA targeting TOP1; target SEQ ID NO: 1, sense strand SEQ ID NO: 16, antisense strand SEQ ID NO: 31 (sense CAACGAUUCCCAGAUCGAAUU; antisense UUCGAUCUGGGAAUCGUUGUU; modified_base 20..21 OTHER; thymine)
Relative expression level of gene, mean value (TOP1 mRNA [1]): 21.85 | Cell viability (%), mean value (A375 melanoma cells): 58.27% | Inhibition of A375 cell proliferation compared to Blank (A375 melanoma cells): about 42%

siTOP1-628: siRNA targeting TOP1; target SEQ ID NO: 2, sense strand SEQ ID NO: 17, antisense strand SEQ ID NO: 32 (sense CCUCCUAAAGAGGAUAUAAUU; antisense UUAUAUCCUCUUUAGGAGGUU; modified_base 20..21 OTHER; thymine)
Relative expression level of gene, mean value (TOP1 mRNA [1]): 24.27

siTOP1-896: siRNA targeting TOP1; target SEQ ID NO: 3, sense strand SEQ ID NO: 18, antisense strand SEQ ID NO: 33 (sense GGAAAUUCCUAGAACAUAAUU; antisense UUAUGUUCUAGGAAUUUCCUU; modified_base 20..21 OTHER; thymine)
Relative expression level of gene, mean value (TOP1 mRNA [1]): 13.05

siTOP1-1261: siRNA targeting TOP1; target SEQ ID NO: 4, sense strand SEQ ID NO: 19, antisense strand SEQ ID NO: 34 (sense GGAUUCUGUAUUAUGGAUAUU; antisense UAUCCAUAAUACAGAAUCCUU; modified_base 20..21 OTHER; thymine)
Relative expression level of gene, mean value (TOP1 mRNA [1]): 17.75

siTOP1-1282: siRNA targeting TOP1; target SEQ ID NO: 5, sense strand SEQ ID NO: 20, antisense strand SEQ ID NO: 35 (sense CACAAAGAGAGGAUUGCUAUU; antisense UAGCAAUCCUCUCUUUGUGUU; modified_base 20..21 OTHER; thymine)
Inhibition of TOP1 expression (TOP1 mRNA [1]): 93.4% | Relative expression level of gene, mean value (TOP1 mRNA [1]): 6.64

siTOP1-1357: siRNA targeting TOP1; target SEQ ID NO: 6, sense strand SEQ ID NO: 21, antisense strand SEQ ID NO: 36 (sense GGCAUGCUGAAGAGACGAAUU; antisense UUCGUCUCUUCAGCAUGCCUU; modified_base 20..21 OTHER; thymine)
Relative expression level of gene, mean value (TOP1 mRNA [1]): 19.62

siTOP1-1459: siRNA targeting TOP1; target SEQ ID NO: 7, sense strand SEQ ID NO: 22, antisense strand SEQ ID NO: 37 (sense CGGCAUGAUAACAAGGUUAUU; antisense UAACCUUGUUAUCAUGCCGUU; modified_base 20..21 OTHER; thymine)
Inhibition of TOP1 expression (TOP1 mRNA [1]): 90.1% | Relative expression level of gene, mean value (TOP1 mRNA [1]): 9.89

siTOP1-1530: siRNA targeting TOP1; target SEQ ID NO: 8, sense strand SEQ ID NO: 23, antisense strand SEQ ID NO: 38 (sense GCUUAACCCUAGUUCACGAUU; antisense UCGUGAACUAGGGUUAAGCUU; modified_base 20..21 OTHER; thymine)
Inhibition of TOP1 expression (TOP1 mRNA [1]): 90.6% | Relative expression level of gene, mean value (TOP1 mRNA [1]): 9.44

siTOP1-1604-m1: Methylation-modified siTOP1-1604; sense strand SEQ ID NO: 51, antisense strand SEQ ID NO: 52 (sense GUGUGGACAAGAUCCGGAATT; antisense UUCCGGAUCUUGUCCACACTT; DNA at T, 2'-O-methyl at CU, RNA at AG, backbone not given here)
Relative expression level, mean value (TOP1 mRNA [2]): 71.77

siTOP1-1630: siRNA targeting TOP1; target SEQ ID NO: 10, sense strand SEQ ID NO: 25, antisense strand SEQ ID NO: 40 (sense CGAGAAGACUGGAAGUCCAUU; antisense UGGACUUCCAGUCUUCUCGUU; modified_base 20..21 OTHER; thymine)
Relative expression level of gene, mean value (TOP1 mRNA [1]): 17.34 | Cell viability (%), mean value (A375 melanoma cells): 43.84% | Inhibition of A375 cell proliferation compared to Blank (A375 melanoma cells): about 56%

siTOP1-1679: siRNA targeting TOP1; target SEQ ID NO: 11, sense strand SEQ ID NO: 26, antisense strand SEQ ID NO: 41 (sense CCCUGUACUUCAUCGACAAUU; antisense UUGUCGAUGAAGUACAGGGUU; modified_base 20..21 OTHER; thymine)
Inhibition of TOP1 expression (TOP1 mRNA [1]): 91.1% | Relative expression level of gene, mean value (TOP1 mRNA [1]): 8.86

siTOP1-1776: siRNA targeting TOP1; target SEQ ID NO: 12, sense strand SEQ ID NO: 27, antisense strand SEQ ID NO: 42 (sense GCACAUCAAUCUACACCCAUU; antisense UGGGUGUAGAUUGAUGUGCUU; modified_base 20..21 OTHER; thymine)
Inhibition of TOP1 expression (TOP1 mRNA [1]): 92.6% | Relative expression level of gene, mean value (TOP1 mRNA [1]): 7.41

siTOP1-2273: siRNA targeting TOP1; target SEQ ID NO: 13, sense strand SEQ ID NO: 28, antisense strand SEQ ID NO: 43 (sense AGGAUGCAAAGACGAAGAAUU; antisense UUCUUCGUCUUUGCAUCCUUU; modified_base 20..21 OTHER; thymine)
Relative expression level of gene, mean value (TOP1 mRNA [1]): 12.54

siTOP1-2585: siRNA targeting TOP1; target SEQ ID NO: 14, sense strand SEQ ID NO: 29, antisense strand SEQ ID NO: 44 (sense GGUUUGGGAAAGAUGGAUAUU; antisense UAUCCAUCUUUCCCAAACCUU; modified_base 20..21 OTHER; thymine)
Inhibition of TOP1 expression (TOP1 mRNA [1]): 91.2% | Relative expression level of gene, mean value (TOP1 mRNA [1]): 8.84

siTOP1-2898: siRNA targeting TOP1; target SEQ ID NO: 15, sense strand SEQ ID NO: 30, antisense strand SEQ ID NO: 45 (sense CGAUUAUAUUGGUGCGUUUUU; antisense AAACGCACCAAUAUAAUCGUU; modified_base 20..21 OTHER; thymine)
Inhibition of TOP1 expression (TOP1 mRNA [1]): 93.0% | Relative expression level of gene, mean value (TOP1 mRNA [1]): 7.05
